Measurements from patent US8969565B2, “Imidazo[1,2-b]pyridazine-based compounds, compositions comprising them, and methods of their use” (Lexicon Pharmaceuticals, Inc., priority 2012, dated 2015).

biological target: T1, AAK1 (Homo sapiens, UniProt Q2M2I8); experiment: HEK281 cell-based assay (phospho-mu2 Western blot in transfected HEK293F cells); settings: 3 hours incubation, read-out: CBA IC50
T1 construct: HA; expressed in transfected cells; host or cells: HEK293F
Summary of the method: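 After 3 hours at 37° C. with compound (five 3-fold-spaced concentrations, DMEM+0.5% FBS), transiently transfected HEK293F cells expressing full-length human AAK1 and Flag-tagged mu2 were lysed. mu2 phosphorylation was read by anti-phospho-mu2 immunoblot, normalized against total mu2 by anti-Flag blot.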

T1 sequence (Q2M2I8 1-863 isoform Q2M2I8-2): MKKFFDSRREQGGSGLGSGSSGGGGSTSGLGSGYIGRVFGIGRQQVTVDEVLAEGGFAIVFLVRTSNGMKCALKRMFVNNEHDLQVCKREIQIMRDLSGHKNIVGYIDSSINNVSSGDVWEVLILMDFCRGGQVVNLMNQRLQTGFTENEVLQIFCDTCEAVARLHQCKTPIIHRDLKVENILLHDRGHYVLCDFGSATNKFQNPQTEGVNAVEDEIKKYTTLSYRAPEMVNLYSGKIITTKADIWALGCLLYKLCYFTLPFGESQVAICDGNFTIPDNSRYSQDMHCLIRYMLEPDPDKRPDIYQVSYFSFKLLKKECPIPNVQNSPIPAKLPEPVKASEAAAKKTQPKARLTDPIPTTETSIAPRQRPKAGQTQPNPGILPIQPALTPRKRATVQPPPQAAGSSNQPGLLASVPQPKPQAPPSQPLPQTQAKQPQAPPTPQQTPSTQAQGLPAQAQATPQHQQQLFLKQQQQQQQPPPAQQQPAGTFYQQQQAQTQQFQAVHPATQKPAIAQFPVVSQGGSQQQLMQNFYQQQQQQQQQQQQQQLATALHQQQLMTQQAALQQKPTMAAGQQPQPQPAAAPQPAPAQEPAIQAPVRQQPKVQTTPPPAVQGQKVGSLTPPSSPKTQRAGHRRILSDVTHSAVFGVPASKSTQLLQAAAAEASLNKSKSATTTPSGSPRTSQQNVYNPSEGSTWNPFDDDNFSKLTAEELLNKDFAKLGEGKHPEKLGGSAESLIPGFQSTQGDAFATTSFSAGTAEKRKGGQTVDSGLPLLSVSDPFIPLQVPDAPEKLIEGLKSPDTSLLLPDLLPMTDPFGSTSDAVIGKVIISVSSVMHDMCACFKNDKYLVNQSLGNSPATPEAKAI

IC50 [nM] | SMILES
≤ 1000 | CC(C)OCCNc1ccc2ncc(-c3cc[nH]n3)n2n1 [N-(2-isopropoxyethyl)-3-(1H-pyrazol-3-yl)imidazo[1,2-b]pyridazin-6-amine]
≤ 10 | COc1cnccc1-c1cnc2ccc(NCCOC(C)C)nn12 [N-(2-isopropoxyethyl)-3-(3-methoxypyridin-4-yl)imidazo[1,2-b]pyridazin-6-amine]
≤ 100 | CC(C)OCCNc1ccc2ncc(-c3ccc(C4CCCN4)cc3)n2n1 (centres unmarked) [N-(2-isopropoxyethyl)-3-(4-(pyrrolidin-2-yl)phenyl)imidazo[1,2-b]pyridazin-6-amine]
≤ 100 | CC(C)OCCNc1ccc2ncc(-c3ccns3)n2n1 [N-(2-isopropoxyethyl)-3-(isothiazol-5-yl)imidazo[1,2-b]pyridazin-6-amine]
≤ 1000 | CC(C)OCCNc1ccc2ncc(-c3cscn3)n2n1 [N-(2-isopropoxyethyl)-3-(thiazol-4-yl)imidazo[1,2-b]pyridazin-6-amine]
≤ 100 | CNCCOCc1ccc(-c2cnc3ccc(NCCC(C)(C)C)nn23)cc1 [N-(3,3-dimethylbutyl)-3-(4-((2-(methylamino)ethoxy)methyl)phenyl)imidazo[1,2-b]pyridazin-6-amine]
≤ 1000 | CC(C)(C)CCNc1ccc2ncc(-c3ccc(C4CCCN4)cc3)n2n1 (centres unmarked) [N-(3,3-dimethylbutyl)-3-(4-(pyrrolidin-2-yl)phenyl)imidazo[1,2-b]pyridazin-6-amine]
≤ 1000 | CN(CCCNc1ccc2ncc(-c3ccc(CN)cc3)n2n1)C(=O)C(C)(C)C [N-(3-((3-(4-(aminomethyl)phenyl)imidazo[1,2-b]pyridazin-6-yl)amino)propyl)-N-methylpivalamide]
≤ 1000 | CCCCNc1ccc2ncc(-c3ccc(C(=O)NCCCN)cc3)n2n1 [N-(3-aminopropyl)-4-(6-(butylamino)imidazo[1,2-b]pyridazin-3-yl)benzamide]
≤ 100 | FCCCNc1ccc2ncc(-c3ccc(C4CCCN4)cc3)n2n1 (centres unmarked) [N-(3-fluoropropyl)-3-(4-(pyrrolidin-2-yl)phenyl)imidazo[1,2-b]pyridazin-6-amine]
≤ 1000 | c1ccc(CCCNc2ccc3ncc(-c4ccc(C5CCCN5)cc4)n3n2)cc1 (centres unmarked) [N-(3-phenylpropyl)-3-(4-(pyrrolidin-2-yl)phenyl)imidazo[1,2-b]pyridazin-6-amine]
≤ 1000 | CCCCNc1ccc2ncc(C(=O)Nc3ccc(OCCN)cc3)n2n1 [N-(4-(2-aminoethoxy)phenyl)-6-(butylamino)imidazo[1,2-b]pyridazine-3-carboxamide]
≤ 1000 | CCCCNc1ccc2ncc(C(=O)Nc3ccc(CN)cc3)n2n1 [N-(4-(aminomethyl)phenyl)-6-(butylamino)imidazo[1,2-b]pyridazine-3-carboxamide]
≤ 100 | CCCCNc1ccc2ncc(-c3ccc(C(=O)N[C@@H]4CCCC[C@@H]4N)cc3)n2n1 [N-((1R,2S)-2-aminocyclohexyl)-4-(6-(butylamino)imidazo[1,2-b]pyridazin-3-yl)benzamide]
≤ 100 | COc1cnccc1-c1cnc2ccc(NCC3CCCC3)nn12 [N-(cyclopentylmethyl)-3-(3-methoxypyridin-4-yl)imidazo[1,2-b]pyridazin-6-amine]
≤ 100 | CCCCNc1ccc2ncc(-c3cc[nH]n3)n2n1 [N-butyl-3-(1H-pyrazol-3-yl)imidazo[1,2-b]pyridazin-6-amine]
≤ 100 | CCCCNc1ccc2ncc(-c3sc(C)nc3C)n2n1 [N-butyl-3-(2,4-dimethylthiazol-5-yl)imidazo[1,2-b]pyridazin-6-amine]
≤ 100 | CCCCNc1ccc2ncc(-c3ccncc3OC)n2n1 [N-butyl-3-(3-methoxypyridin-4-yl)imidazo[1,2-b]pyridazin-6-amine]
≤ 1000 | CCCCNc1ccc2ncc(-c3ccc(CNCCOC)cc3)n2n1 [N-butyl-3-(4-(((2-methoxyethyl)amino)methyl)phenyl)imidazo[1,2-b]pyridazin-6-amine]
≤ 1000 | CCCCNc1ccc2ncc(-c3ccc(CNCC4CCCO4)cc3)n2n1 (centres unmarked) [N-butyl-3-(4-((((tetrahydrofuran-2-yl)methyl)amino)methyl)phenyl)imidazo[1,2-b]pyridazin-6-amine]
≤ 1000 | CCCCNc1ccc2ncc(-c3ccc(CNCC4CC4)cc3)n2n1 [N-butyl-3-(4-(((cyclopropylmethyl)amino)methyl)phenyl)imidazo[1,2-b]pyridazin-6-amine]
≤ 1000 | CCCCNc1ccc2ncc(-c3ccc(CNC(C)C)cc3)n2n1 [N-butyl-3-(4-((isopropylamino)methyl)phenyl)imidazo[1,2-b]pyridazin-6-amine]
≤ 1000 | CCCCNc1ccc2ncc(-c3ccc(CNCCC)cc3)n2n1 [N-butyl-3-(4-((propylamino)methyl)phenyl)imidazo[1,2-b]pyridazin-6-amine]

IC50 [nM] | SMILES
≤ 1000 | CCCCNc1ccc2ncc(-c3ccc(CNC(C)(C)C)cc3F)n2n1 [N-butyl-3-(4-((tert-butylamino)methyl)-2-fluorophenyl)imidazo[1,2-b]pyridazin-6-amine]
≤ 100 | CCCCNc1ccc2ncc(-c3ccc(CNC(C)(C)C)c(F)c3)n2n1 [N-butyl-3-(4-((tert-butylamino)methyl)-3-fluorophenyl)imidazo[1,2-b]pyridazin-6-amine]
≤ 1000 | CCCCNc1ccc2ncc(-c3ccc(C4CCCN4)cc3)n2n1 (centres unmarked) [N-butyl-3-(4-(pyrrolidin-2-yl)phenyl)imidazo[1,2-b]pyridazin-6-amine]
≤ 1000 | CCCCNc1ccc2ncc(-c3ccc4c(c3)CNC4)n2n1 [N-butyl-3-(isoindolin-5-yl)imidazo[1,2-b]pyridazin-6-amine]
≤ 100 | COc1cnccc1-c1cnc2ccc(NCCC(C)C)nn12 [N-isopentyl-3-(3-methoxypyridin-4-yl)imidazo[1,2-b]pyridazin-6-amine]
≤ 10 | CNC(=O)c1ccc(-c2cnc3ccc(NCCc4ccccc4OC(F)(F)F)nn23)cc1 [N-methyl-4-(6-((2-(trifluoromethoxy)phenethyl)amino)imidazo[1,2-b]pyridazin-3-yl)benzamide]
≤ 1000 | CCCCCNc1ccc2ncc(-c3ccc(C4CCCN4)cc3)n2n1 (centres unmarked) [Pentyl-[3-(4-pyrrolidin-2-yl-phenyl)-imidazo[1,2-b]pyridazin-6-yl]-amine]
≤ 100 | CCCCNc1nn2c(-c3ccc(CN)cc3)cnc2cc1C [[3-(4-Aminomethyl-phenyl)-7-methyl-imidazo[1,2-b]pyridazin-6-yl]-butyl-amine]
≤ 100 | NCc1ccc(-c2cnc3ccc(NCCCc4ccccc4)nn23)cc1 [[3-(4-Aminomethyl-phenyl)-imidazo[1,2-b]pyridazin-6-yl]-(3-phenyl-propyl)-amine]
≤ 1000 | NCc1ccc(-c2cnc3ccc(NC4CCCCC4)nn23)cc1 [[3-(4-Aminomethyl-phenyl)-imidazo[1,2-b]pyridazin-6-yl]-cyclohexylamine]
≤ 100 | CC(C)N(CCNc1ccc2ncc(-c3ccc(C(N)=O)cc3)n2n1)C(=O)OC1CCCC1 [cyclopentyl (2-((3-(4-carbamoylphenyl)imidazo[1,2-b]pyridazin-6-yl)amino)ethyl)(isopropyl)carbamate]
≤ 100 | CCOC(=O)CCCNc1ccc2ncc(-c3ccc(CN)cc3)n2n1 [ethyl 4-((3-(4-(aminomethyl)phenyl)imidazo[1,2-b]pyridazin-6-yl)amino)butanoate]
≤ 10 | CCOC(=O)N(C)CCNc1ccc2ncc(-c3ccncc3OC)n2n1 [ethyl (2-((3-(3-methoxypyridin-4-yl)imidazo[1,2-b]pyridazin-6-yl)amino)ethyl)(methyl)carbamate]
≤ 100 | CCOC(=O)N(C)CCNc1ccc2ncc(-c3ccc(C(=O)NCCC(C)C)cc3)n2n1 [ethyl (2-((3-(4-(isopentylcarbamoyl)phenyl)imidazo[1,2-b]pyridazin-6-yl)amino)ethyl)(methyl)carbamate]
≤ 100 | CCOC(=O)N(C)CCNc1ccc2ncc(-c3ccc(C(=O)NC(C)(C)C)cc3)n2n1 [ethyl (2-((3-(4-(tert-butylcarbamoyl)phenyl)imidazo[1,2-b]pyridazin-6-yl)amino)ethyl)(methyl)carbamate]
≤ 100 | CCOC(=O)N(CCNc1ccc2ncc(-c3ccc(C(N)=O)cc3)n2n1)C(C)C [ethyl (2-((3-(4-carbamoylphenyl)imidazo[1,2-b]pyridazin-6-yl)amino)ethyl)(isopropyl)carbamate]
≤ 100 | CCOC(=O)N(C)CCNc1ccc2ncc(-c3ccc(C(N)=O)cc3)n2n1 [ethyl (2-((3-(4-carbamoylphenyl)imidazo[1,2-b]pyridazin-6-yl)amino)ethyl)(methyl)carbamate]
≤ 1000 | CCOC(=O)N(C)CCCNc1ccc2ncc(-c3ccc(C(C)=O)s3)n2n1 [ethyl (3-((3-(5-acetylthiophen-2-yl)imidazo[1,2-b]pyridazin-6-yl)amino)propyl)(methyl)carbamate]
≤ 10 | CCOC(=O)N(CCNc1ccc2ncc(-c3ccncc3OC)n2n1)C(C)C [ethyl isopropyl(2-((3-(3-methoxypyridin-4-yl)imidazo[1,2-b]pyridazin-6-yl)amino)ethyl)carbamate]
≤ 100 | CCOC(=O)N(C)CCNc1ccc2ncc(-c3ccc(C(=O)NC)cc3)n2n1 [ethyl methyl(2-((3-(4-(methylcarbamoyl)phenyl)imidazo[1,2-b]pyridazin-6-yl)amino)ethyl)carbamate]
≤ 100 | CCOC(=O)N(C)CCNc1ccc2ncc(-c3ccc(C(=O)NC)s3)n2n1 [ethyl methyl(2-((3-(5-(methylcarbamoyl)thiophen-2-yl)imidazo[1,2-b]pyridazin-6-yl)amino)ethyl)carbamate]
≤ 100 | CC(C)COC(=O)N(C)CCNc1ccc2ncc(-c3ccc(C(N)=O)cc3)n2n1 [isobutyl (2-((3-(4-carbamoylphenyl)imidazo[1,2-b]pyridazin-6-yl)amino)ethyl)(methyl)carbamate]

SMILES | IC50 [nM]
CC(C)COCCNc1ccc2ncc(-c3ccncc3)n2n1 [N-(2-isobutoxyethyl)-3-(pyridin-4-yl)imidazo[1,2-b]pyridazin-6-amine] | ≤ 1000
COc1cnccc1-c1cnc2ccc(NCCCOC(C)(C)C)nn12 [N-(3-(tert-butoxy)propyl)-3-(3-methoxypyridin-4-yl)imidazo[1,2-b]pyridazin-6-amine] | ≤ 1000
